Measured values taken from patent publication EP0908457B1, “3-(1,2-benzisothiazol- and isoxazol-5-Y1)-2,4(1H,3H)-pyrimidinedione or thione and 3-(1,2-benzisothiazol- and isoxazol-5-y1)-4(3H)-pyrimidinone or thione herbicidal agents” (BASF AKTIENGESELLSCHAFT, priority 1997, dated 1999).

What was measured:
Cyperus iria = assay: Preemergence weed control under flooded paddy conditions, CYPIR (Rice Flatsedge); assay type: in vivo; details: preemergence, flooded paddy, rated three to four weeks after treatment; further: meaning of each grade not given here
Sagittaria pygmaea, L. = assay: Preemergence weed control under flooded paddy conditions, SAGPY (Arrowhead (Pygmaea)); assay type: in vivo; details: preemergence, flooded paddy, rated three to four weeks after treatment; further: meaning of each grade not given here
[1] = tested on: Echinochloa oryzoides (Ard.) Fritsch.; assay: Preemergence weed control under flooded paddy conditions, ECHORC (Watergrass (Calif.)); assay type: in vivo; details: preemergence, flooded paddy, rated three to four weeks after treatment; further: meaning of each grade not given here
[2] = tested on: Monochoria vaginalis, Presl.; assay: Preemergence weed control under flooded paddy conditions, MOOVA (Monochoria); assay type: in vivo; details: preemergence, flooded paddy, rated three to four weeks after treatment; further: meaning of each grade not given here
[3] = tested on: Oryza sativa, (L.) Tebonnet; assay: Rice tolerance to post-transplant applications under flooded paddy conditions (Example 187), ORYSAT (Rice, Tebonnet); details: rated three to four weeks after treatment
[4] = tested on: Cyperus serotinus, Rottb.; assay: Preemergence weed control under flooded paddy conditions, CYPSE (Flatsedge); assay type: in vivo; details: preemergence, rated three to four weeks after treatment; further: meaning of each grade not given here

SMILES	herbicidal effect rating, CYPIR (Cyperus iria; 0.0313 kg/ha)	herbicidal effect rating, CYPIR (Cyperus iria; 0.0625 kg/ha)	herbicidal effect rating, CYPIR (Cyperus iria; 0.1250 kg/ha)	herbicidal effect rating, CYPIR (Cyperus iria; 0.2500 kg/ha)	herbicidal effect rating, SAGPY (Sagittaria pygmaea, L.; 0.0313 kg/ha)	herbicidal effect rating, SAGPY (Sagittaria pygmaea, L.; 0.0625 kg/ha)	herbicidal effect rating, SAGPY (Sagittaria pygmaea, L.; 0.1250 kg/ha)	herbicidal effect rating, SAGPY (Sagittaria pygmaea, L.; 0.2500 kg/ha)	herbicidal effect rating, ECHORC ([1]; 0.0313 kg/ha)	herbicidal effect rating, ECHORC ([1]; 0.0625 kg/ha)	herbicidal effect rating, ECHORC ([1]; 0.1250 kg/ha)	herbicidal effect rating, ECHORC ([1]; 0.2500 kg/ha)	herbicidal effect rating, MOOVA ([2]; 0.0313 kg/ha)	herbicidal effect rating, MOOVA ([2]; 0.0625 kg/ha)	herbicidal effect rating, MOOVA ([2]; 0.1250 kg/ha)	herbicidal effect rating, MOOVA ([2]; 0.2500 kg/ha)	herbicidal effect rating, ORYSAT (rice tolerance) ([3]; 0.0313 kg/ha)	herbicidal effect rating, ORYSAT (rice tolerance) ([3]; 0.0625 kg/ha)	herbicidal effect rating, ORYSAT (rice tolerance) ([3]; 0.1250 kg/ha)	herbicidal effect rating, ORYSAT (rice tolerance) ([3]; 0.2500 kg/ha)	also measured
COc1ccc(C(C)C)cc1-c1nsc2ccc(-n3c(=O)cc(C(F)(F)F)n(C)c3=O)cc12 [Example 46, 3-[3-(5-Isopropyl-2-methoxyphenyl)-1,2-benzisothiazol-5-yl]-1-methyl-6-(trifluoromethyl)-2,4(1H,3H)-pyrimidinedione]	2.0	6.0	9.0	9.0	0.0	0.0	2.0	7.0	9.0	9.0	9.0	9.0	9.0	9.0	9.0	9.0	1.0	1.0	2.0	3.0	herbicidal effect rating, CYPSE ([4]; 0.0313 kg/ha): 0.0; herbicidal effect rating, CYPSE ([4]; 0.0625 kg/ha): 0.0; herbicidal effect rating, CYPSE ([4]; 0.2500 kg/ha): 2.0
COC(=O)C(C)Oc1ccccc1Oc1noc2ccc(-n3c(=O)cc(C(F)(F)F)n(C)c3=O)cc12 (centres unmarked) [Example 47, Methyl 2-{o-{{5-[3,6-dihydro-3-methyl-2,6-dioxo-4-(trifluoromethyl)-1(2H)-pyrimidinyl]-1,2-benzisoxazol-3-yl}oxy}phenoxy}propionate]	0.0	0.0	0.0	1.0	0.0	0.0	0.0	0.0	0.0	1.5	3.5	5.0	4.5	4.5	5.5	9.0	1.5	2.5	4.0	6.0	herbicidal effect rating, CYPSE ([4]; 0.0313 kg/ha): 0.0; herbicidal effect rating, CYPSE ([4]; 0.0625 kg/ha): 0.0; herbicidal effect rating, CYPSE ([4]; 0.1250 kg/ha): 1.0; herbicidal effect rating, CYPSE ([4]; 0.2500 kg/ha): 2.0
Cc1ccc(OCC#N)c(-c2nsc3ccc(-n4c(=O)cc(C(F)(F)F)n(C)c4=O)cc23)c1 [Example 57, 3-{3-[6-(Cyanomethoxy)-m-tolyl]-1,2-benzisothiazol-5-yl}-1-methyl-6-(trifluoromethyl)-2,4(1H,3H)-pyrimidinedione]	9.0	9.0	9.0	9.0	0.0	0.0	0.0	0.0	9.0	9.0	9.0	9.0	9.0	9.0	9.0	9.0	3.0	4.0	5.0	6.0	herbicidal effect rating, CYPSE ([4]; 0.0313 kg/ha): 0.0; herbicidal effect rating, CYPSE ([4]; 0.0625 kg/ha): 0.0; herbicidal effect rating, CYPSE ([4]; 0.1250 kg/ha): 0.0; herbicidal effect rating, CYPSE ([4]; 0.2500 kg/ha): 0.0
Cc1ccc(OC(C)C#N)c(-c2nsc3ccc(-n4c(=O)cc(C(F)(F)F)n(C)c4=O)cc23)c1 (centres unmarked) [Example 58, 3-{3-[6-(1-Cyanoethoxy)-m-tolyl]-1,2-benzisothiazol-5-yl}-1-methyl-6-(trifluoromethyl)-2,4(1H,3H)-pyrimidinedione]	9.0	9.0	9.0	9.0	0.0	0.0	0.0	0.0	9.0	9.0	9.0	9.0	9.0	9.0	9.0	9.0	2.0	2.0	3.0	5.0	herbicidal effect rating, CYPSE ([4]; 0.0313 kg/ha): 0.0; herbicidal effect rating, CYPSE ([4]; 0.0625 kg/ha): 0.0; herbicidal effect rating, CYPSE ([4]; 0.1250 kg/ha): 0.0; herbicidal effect rating, CYPSE ([4]; 0.2500 kg/ha): 0.0
Cc1ccc(OC(C)C)c(-c2nsc3ccc(-n4c(=O)cc(C(F)(F)F)n(C)c4=O)cc23)c1 [Example 59, 3-[3-(6-Isopropoxy-m-tolyl)-1,2-benzisothiazol-5-yl]-1-methyl-6-(trifluoromethyl)-2,4(1H,3H)-pyrimidinedione]	7.0	7.0	8.0	9.0	0.0	0.0	0.0	0.0	9.0	9.0	9.0	9.0	9.0	9.0	9.0	9.0	2.0	3.0	4.0	4.0	herbicidal effect rating, CYPSE ([4]; 0.0313 kg/ha): 0.0; herbicidal effect rating, CYPSE ([4]; 0.0625 kg/ha): 0.0; herbicidal effect rating, CYPSE ([4]; 0.1250 kg/ha): 0.0; herbicidal effect rating, CYPSE ([4]; 0.2500 kg/ha): 0.0
CCN(CC)C(=O)COc1ccc(C)cc1-c1nsc2ccc(-n3c(=O)cc(C(F)(F)F)n(C)c3=O)cc12 [Example 60, 3-{3-{6-[(Diethylcarbamoyl)methoxy]-m-tolyl}-1,2-benzisothiazol-5-yl}-1-methyl-6-(trifluoromethyl)-2,4(1H,3H)-pyrimidinedione]	0.0	0.0	0.0	0.0	0.0	0.0	0.0	0.0	2.0	4.0	8.0	9.0	9.0	9.0	9.0	9.0	0.0	0.0	0.0	0.0	herbicidal effect rating, CYPSE ([4]; 0.0313 kg/ha): 0.0; herbicidal effect rating, CYPSE ([4]; 0.0625 kg/ha): 0.0; herbicidal effect rating, CYPSE ([4]; 0.1250 kg/ha): 0.0; herbicidal effect rating, CYPSE ([4]; 0.2500 kg/ha): 0.0
Cc1ccc(OCC(=O)N(C(C)C)C(C)C)c(-c2nsc3ccc(-n4c(=O)cc(C(F)(F)F)n(C)c4=O)cc23)c1 [Example 61, 3-{3-{6-[(Diisopropylcarbamoyl)methoxy]-m-tolyl}-1,2-benzisothiazol-5-yl}-1-methyl-6-(trifluoromethyl)-2,4(1H,3H)-pyrimidinedione]	0.0	0.0	2.0	2.0	0.0	0.0	0.0	0.0	4.0	7.0	8.0	8.0	8.0	8.0	9.0	9.0	0.0	0.0	0.0	0.0	herbicidal effect rating, CYPSE ([4]; 0.0313 kg/ha): 0.0; herbicidal effect rating, CYPSE ([4]; 0.0625 kg/ha): 0.0; herbicidal effect rating, CYPSE ([4]; 0.1250 kg/ha): 0.0; herbicidal effect rating, CYPSE ([4]; 0.2500 kg/ha): 0.0
